Reference: patent US20050214738A1, “Conditional allele system” (priority 2003, published 2005)

Experiments:
GSK-3βFRB* [1] = target: T1, GSK-3βFRB* (Homo sapiens, UniProt P42345+P62942, K2095P/T2098L/W2101F); test: GSK-3β immunoprecipitation-kinase assay on MEF lysates; format: biochemical, mouse; details: treated GSK-3βFRB*/FRB* cells
T1 construct: The minimal FRB domain comprises amino acids 2025-2114 of human mTor; endogenous in cells; host or cells: lysates of MEFs from GSK-3β^FRB* knock-in mice; immunoprecipitated with anti-GSK-3β

[2] = tested on: T2, GSK-3βFRB* (K2095P/T2098L/W2101F); test: as above; format: biochemical, mouse; details: treated versus untreated GSK-3βFRB*/FRB* MEFs
T2 construct: The minimal FRB domain comprises amino acids 2025-2114 of human mTor; endogenous in cells; host or cells: lysates of MEFs from GSK-3β^FRB* knock-in mice; immunoprecipitated with anti-GSK-3β

embryos = test: Overt effects on mother and embryos after IP injection of pregnant mice; format: in vivo, mouse; details: 200 mg/kg/day, 3 IP injections every 12 hours, E10.0 to E11.5
Description: GSK-3β^+/FRB* mice were intercrossed and the date of vaginal plug observation was set as E0.5. At E9.5, the stage of embryonic development was confirmed by ultrasonography (Chang, C. P. et al. “Sonographic Staging of the Developmental Status of Mouse Embryos in Utero.” (2003) Published in Genesis 36, 7-11) and mice were weighed. Drug administration commenced at E10.0. […] 100 μL was immediately injected intraperitoneally (IP) to pregnant females with injections repeated twice more at 12 hour intervals to E11.5 when mice were sacrificed, and embryos and organs were dissected and frozen in […]. Tissues anterior to the embryonic forelimbs of individual embryos were used for preparation of protein extracts with the remainder used to determine the concentration of drug and for genotyping.

FRB*Pax6 = target: T3, FRB*Pax6 (UniProt P26883+P42345, K2095P/T2098L/W2101F); test: Stabilization of FRB*Pax6 in cortical neural cultures (Western blot); format: cell-based, mouse
T3 construct: The minimal FRB domain comprises amino acids 2025-2114 of human mTor; from tissue; host or cells: e13.5 cortical neural cultures (A14) and cultured whole embryos (A15) from Pax6^FRB* knock-in mice; fusion expressed from the targeted endogenous locus
Description: e13.5 embryos were harvested from a Pax6^FRB*/+ intercross and cortical hemispheres isolated from individuals identified by eye and craniofacial morphology and later confirmed by genotype specific PCR. Pia were removed and neocortex dissected from […] in Hank's balanced salt solution (HBSS). Tissue was minced roughly and placed in centrifuge tubes containing HBSS+20% foetal calf serum. Tissue pieces were allowed to settle and the media was replaced first with HBSS+serum then HBSS alone. The tissue was incubated with 0.1% trypsin+2 mM EDTA 10 minutes at 37° C. then the reaction stopped with HBSS+serum. Cells were triturated to a suspension and plated on 24 well plates coated with matrigel in DMEM (high glucose) supplemented with FCS (5%), N2 (GIBCO) and antibiotics.
Extracts were prepared in RIPA buffer, protein quantified by Bradford Assay (Biorad) and 10 μg of total protein resolved by SDS-PAGE, transferred to PVDF (Millipore) filters and Pax6 or HSP90 identified with specific antibodies (1:1000, Covance and 1:2500 Transduction Laboratories, respectively) incubated 1 hour in TBS+10% nonfat milk. Secondary conjugated to horse radish peroxidase were purchased from Jackson immunochemicals and blots were developed by chemiluminescence (Amersham).

GSK-3βFRB* [3] = target: GSK-3βFRB* (UniProt P26883+P42345, K2095P/T2098L/W2101F); test: Stabilization of transfected GSK-3β FRB* in MEFs (Western blot); format: cell-based, mouse; set-up: The minimal FRB domain comprises amino acids 2025-2114 of human mTor; GSK-3β (fusion partner); expressed in transfected cells; host or cells: wild-type mouse embryonic fibroblasts (MEFs); details: transiently transfected MEFs, drug for 36 h
Description: MEFs were transfected using FuGENE-6 (Roche Applied Science). Plasmid DNA (5 μg per 6 cm dish) was mixed in a 1:2 ratio with the FuGENE-6 reagent in Opti-MEM (Invitrogen Life Technologies) before being applied to the cells growing in DMEM/10% FCS and containing C20-MaRap where appropriate. After 12 hours, the cells were split to 6 well plates before further drug treatments to ensure each well contained an equivalently transfected population.
Western Blot analysis was carried out using cell lysates prepared in RIPA buffer (10 mM Tris pH 7.2, 150 mM NaCl, 0.1% SDS, 1% Triton X-100, 1% deoxycholate, 5 mM EDTA, protease inhibitor cocktail (Invitrogen Life Technologies)) and then separated using standard SDS/PAGE before being transferred to PVDF (Millipore) using standard Western blotting procedures. The anti-GSK-3β antibody, used at 1:2500, the anti-HSP-90 antibody, 1:2500, and the anti-FKBP12 antibody, 1:2500, were purchased from BD Transduction Labs. The anti-β-catenin antibody, 1:2000, and anti-HSP-70 antibody, 1:1000 were purchased from Santa Cruz Biotechnology. The anti-BRG1 antibody, 1:1000, was previously prepared in our laboratory (Khavari, P. A. et al. “BRG1 Contains a Conserved Domain of the SWI2/SNF2 Family Necessary for Normal Mitotic Growth and Transcription.” (1993) Published in Nature 366, 170-174). […]

T3 sequence (P42345 2025-2114 K2095P/T2098L/W2101F): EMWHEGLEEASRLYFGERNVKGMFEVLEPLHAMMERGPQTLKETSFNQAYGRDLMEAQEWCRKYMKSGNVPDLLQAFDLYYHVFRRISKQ
T3 sequence (P26883 2-108): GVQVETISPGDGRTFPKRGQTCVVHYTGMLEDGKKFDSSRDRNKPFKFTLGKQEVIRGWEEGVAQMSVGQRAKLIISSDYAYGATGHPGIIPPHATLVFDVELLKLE
T2 sequence (P42345 2025-2114 K2095P/T2098L/W2101F): as the sequence (P42345 2025-2114 K2095P/T2098L/W2101F) above
T2 sequence (P62942 whole entry, further chain, the tested form may be a part): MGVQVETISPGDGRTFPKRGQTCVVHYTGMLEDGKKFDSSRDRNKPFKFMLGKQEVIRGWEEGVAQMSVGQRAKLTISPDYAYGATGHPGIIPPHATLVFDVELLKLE
Chain of GSK-3βFRB* (UniProt P26883+P42345, K2095P/T2098L/W2101F) (P42345 2025-2114 K2095P/T2098L/W2101F): as the sequence (P42345 2025-2114 K2095P/T2098L/W2101F) above
Chain of GSK-3βFRB* (UniProt P26883+P42345, K2095P/T2098L/W2101F) (P26883 2-108): as the sequence (P26883 2-108) above
T1 sequence (P42345 2025-2114 K2095P/T2098L/W2101F): as the sequence (P42345 2025-2114 K2095P/T2098L/W2101F) above
T1 sequence (P62942 whole entry, the tested form may be a part): as the sequence (P62942 whole entry, further chain, the tested form may be a part) above

For “C20-(R or S)-methallylrapamycin [C20-MaRap]”, the “kinase activity relative to wild-type cells” value (GSK-3βFRB* [1]) was “approximately 60%”, the “increase in GSK-3β kinase activity” value [2] was “over 7 fold” and the “overt effect on mother and embryos” value (embryos) was “Neither the mother nor the embryos were overtly affected”. The “FRB*Pax6 protein level” value (FRB*Pax6; Pax6FRB*/FRB* cortical neural cultures, increasing quantities, 36 hours) was “dose-dependent increase in FRB*Pax6 protein”, the “effect on wild-type Pax6 expression” value (FRB*Pax6; cortical neural cultures) was “no effect” and the “kinetics of FRB*Pax6 turnover” value (FRB*Pax6; data not shown) was “markedly slowed”. For the same substance, the “GSK-3β FRB* expression” value (GSK-3βFRB* [3]) was “restored GSK-3β FRB* expression to normal”.
